Patent publication EP0471756B1, “SACCHARIN DERIVATIVES USEFUL AS PROTEOLYTIC ENZYME INHIBITORS AND PREPARATION THEREOF” (priority 1989, dated 1990)

Assays:
[1] = target: α-Chymotrypsin (Bos taurus, UniProt P00766); assay: Inactivation of α-chymotrypsin: kon measured, Ki* = koff/kon calculated; type: biochemical; settings: rate of inactivation kon = kobs/[I], value is kon x 10^-3
Description: (§1) Thus, instead of measuring a Ki, a Ki* is calculated which is defined as the ratio of the koff/kon, the rate of reactivation of the enzyme to the rate of inactivation of the enzyme. The values of koff and kon are measured and Ki* is then calculated.
(§2) The rate of inactivation, kon, of enzymatic activity was determined for the compounds tested by measuring the enzyme activity of an aliquot of the respective enzyme as a function of time after addition of the test compound. […] The rate of inactivation is then equal to kon =(kobs)/([I]) [formula] where [I] is the concentration of the inhibiting compound.
(§3) The reactivation constant, koff, is similarly determined and the inhibition constant, Ki*, is then calculated as Ki * = koff /kon [formula]

[2] = target: T1, human leukocyte elastase (HLE) (Homo sapiens, UniProt P08246); assay: Inactivation of human leukocyte elastase: kon measured, Ki* = koff/kon calculated; type: biochemical; settings: Elastase; for kinact/KI: read-out: 10^-3 x kon; for Ki: Ki* = koff/kon, not a truly reversible inhibition constant
T1 sequence (P08246 30-267): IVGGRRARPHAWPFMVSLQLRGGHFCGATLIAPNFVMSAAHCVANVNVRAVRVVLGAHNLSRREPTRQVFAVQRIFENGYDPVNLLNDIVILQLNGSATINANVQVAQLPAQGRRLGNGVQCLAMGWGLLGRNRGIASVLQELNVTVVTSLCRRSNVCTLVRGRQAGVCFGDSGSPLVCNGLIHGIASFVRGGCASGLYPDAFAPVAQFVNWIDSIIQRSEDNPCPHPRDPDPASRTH
Description: as §1, §2, §3

[3] = rate of inactivation kon = kobs/[I], value is kon x 10^-3

`CC(=O)OCN1C(=O)c2c(C)cccc2S1(=O)=O` [Example 1, 2-acetoxymethyl-4-methylsaccharin] showed a kinact/KI [1] of 1200 M⁻¹ s⁻¹ and a kinact/KI [2, 3] of 630 M⁻¹ s⁻¹.

In the case of `O=C1c2c(-c3ccccc3)cccc2S(=O)(=O)N1CCl` [Example 18, 2-chloromethyl-4-phenylsaccharin], the kinact/KI [1] is reported as 210 M⁻¹ s⁻¹ and the kinact/KI [2, 3] is reported as 1000 M⁻¹ s⁻¹.

With `O=C1c2ccccc2S(=O)(=O)N1C[S+]([O-])c1ncccn1` (centres unmarked) [Example 13, 2-(2-pyrimidylsulfinylmethyl)saccharin] the kinact/KI [1] was 2600 M⁻¹ s⁻¹ and the kinact/KI [2, 3] was 300 M⁻¹ s⁻¹.

Work on `O=C1c2c(Cl)cccc2S(=O)(=O)N1Cn1nnn(-c2ccccc2)c1=S` [Example 5, 4-chloro-2-(4-phenyl-5-thioxotetrazolin-1-ylmethyl)saccharin] yielded a kinact/KI [1] of 6000 M⁻¹ s⁻¹ and a kinact/KI [2, 3] of 44000 M⁻¹ s⁻¹.

`O=C1c2ccccc2S(=O)(=O)N1C[S+]([O-])c1nnnn1-c1ccccc1` (centres unmarked) [Example 10, 2-(1-phenyl-1H-tetrazol-5-ylsulfinylmethyl)saccharin] was tested, and the kinact/KI [1] was 7000 M⁻¹ s⁻¹ and the kinact/KI [2, 3] was 7000 M⁻¹ s⁻¹.

`CC(=O)OCN1C(=O)c2c(Cl)cccc2S1(=O)=O` [Example 2, 2-acetoxymethyl-4-chlorosaccharin] was tested, and the kinact/KI [1] was 2900 M⁻¹ s⁻¹ and the kinact/KI [2, 3] was 4900 M⁻¹ s⁻¹.

`Cn1nnnc1SCN1C(=O)c2ccccc2S1(=O)=O` [Example 8, 2-(1-methyl-1H-tetrazol-5-ylthiomethyl)saccharin] showed a kinact/KI [1] of 2100 M⁻¹ s⁻¹, a Ki [2] of 81 nM and a kinact/KI [2, 3] of 1000 M⁻¹ s⁻¹.

For `O=C1c2ccccc2S(=O)(=O)N1CS(=O)(=O)c1ncccn1` [Example 14, 2-(2-pyrimidylsulfonylmethyl)saccharin], the kinact/KI [1] was 2800 M⁻¹ s⁻¹ and the kinact/KI [2, 3] was 600 M⁻¹ s⁻¹.

Compound `CC(=O)Nc1cccc(-n2nnnc2SCN2C(=O)c3ccccc3S2(=O)=O)c1` [Example 6, 2-[1-(3-acetamidophenyl)-1H-tetrazol-5-ylthiomethyl]saccharin] has a kinact/KI [1] of 3700 M⁻¹ s⁻¹ and a kinact/KI [2, 3] of 5500 M⁻¹ s⁻¹.

`O=C1c2ccccc2S(=O)(=O)N1CSc1nnnn1C1CCCCC1` [Example 9, 2-(1-cyclohexyl-1H-tetrazol-5-ylthiomethyl)saccharin] was tested, and the Ki [2] was 32 nM and the kinact/KI [2, 3] was 2500 M⁻¹ s⁻¹.

With `O=C1c2c(Br)cccc2S(=O)(=O)N1CCl` [Example 21, 2-chloromethyl-4-bromosaccharin] the kinact/KI [2, 3] was 950000 M⁻¹ s⁻¹.

In the case of `CC(C)c1cccc2c1C(=O)N(CSc1nnnn1CC(=O)N(C)C)S2(=O)=O` [Example 30AW], the kinact/KI [2, 3] is reported as 30000 M⁻¹ s⁻¹.

Work on `CCOc1cccc2c1C(=O)N(CCl)S2(=O)=O` [Example 22H] yielded a kinact/KI [2, 3] of 25000 M⁻¹ s⁻¹.

In the case of `O=C1c2ccccc2S(=O)(=O)N1CSc1nc(-c2ccccc2)ns1` [Example 30AF], the “10^-3 x kon” value [2, 3] is reported as 4.2 M^-1 sec^-1.

`O=C1c2ccccc2S(=O)(=O)N1CSc1nnc(SCCN2CCCCC2)s1` [Example 33C, 2-(5-[2-(1-piperidinyl)ethylthio]-1,3,4-thiadiazol-2-ylthiomethyl) saccharin] showed a kinact/KI [2, 3] of 200 M⁻¹ s⁻¹.

In the case of `Cc1nnc(SCN2C(=O)c3ccccc3S2(=O)=O)s1` [Example 30AB], the kinact/KI [2, 3] is reported as 2800 M⁻¹ s⁻¹.

With `O=C1c2cccc(Cl)c2S(=O)(=O)N1CSc1nnnn1-c1ccccc1` [Example 30AG] the Ki [2] was > 1000 nM.

Work on `CN(C)CCSc1nnc(SCN2C(=O)c3ccccc3S2(=O)=O)s1` [Example 33B, 2-(5-[2-(N,N-dimethylamino)ethylthio]-1,3,4-thiadiazol-2-ylthiomethyl)saccharin] yielded a kinact/KI [2, 3] of 4000 M⁻¹ s⁻¹.

`CC(C)c1cccc2c1C(=O)N(Cn1nnn(-c3ccccc3)c1=S)S2(=O)=O` [Example 30AJ] showed a kinact/KI [2, 3] of 1800 M⁻¹ s⁻¹.

`O=C1c2c(Cl)cccc2S(=O)(=O)N1CCl` [Example 3, 2-chloromethyl-4-chlorosaccharin] showed a kinact/KI [1] of 5800 M⁻¹ s⁻¹ and a kinact/KI [2, 3] of 450000 M⁻¹ s⁻¹.

For `O=C1c2ccccc2S(=O)(=O)N1CS(=O)(=O)c1ccccc1` [Example 12, 2-(phenylsulfonylmethyl)saccharin], the kinact/KI [1] was 1100 M⁻¹ s⁻¹ and the kinact/KI [2, 3] was 970 M⁻¹ s⁻¹.

For `CC(C)Oc1cccc2c1C(=O)N(CSc1nnnn1-c1ccccc1)S2(=O)=O` [Example 30AU], the Ki [2] was 17.5 nM and the kinact/KI [2, 3] was 8900 M⁻¹ s⁻¹.

Compound `Nc1cccc(-n2nnnc2SCN2C(=O)c3ccccc3S2(=O)=O)c1` [Example 30C, 2-[1-(3-aminophenyl)-1H-tetrazol-5-ylthiomethyl]saccharin] has a kinact/KI [2, 3] of 2500 M⁻¹ s⁻¹.

With `O=C1c2ccccc2S(=O)(=O)N1CSc1ncccn1` [Example 30F, 2-(2-pyrimidylthiomethyl)saccharin] the Ki [2] was > 85000 nM.

With `O=C1c2ccccc2S(=O)(=O)N1CSc1nnnn1CCN1CCOCC1` [Example 30BG] the kinact/KI [2, 3] was 1700 M⁻¹ s⁻¹.

For `O=C1c2ccccc2S(=O)(=O)N1COc1ccc([N+](=O)[O-])cc1` [Example 15, 2-(4-nitrophenoxymethyl)saccharin], the kinact/KI [2, 3] was 3200 M⁻¹ s⁻¹.

`Cc1nnc(SCN2C(=O)c3c(C(C)C)cccc3S2(=O)=O)s1` [Example 30AM] gave a kinact/KI [2, 3] of 12300 M⁻¹ s⁻¹.
